Experimental data reported in patent publication US9896443B2, “Perforin inhibiting benzenesulfonamide compounds, preparation and uses thereof” (Peter MacCallum Cancer Institute, priority 2012, dated 2018).
Read-outs that look alike come from different tables or passages of the source.

Experiments:
[1] = system: KHYG-1 NK cell-mediated lysis of K562 cells; assay: Inhibition of KHYG-1 NK cell-mediated lysis of K562 cells (51Cr release); type: cell-based; conditions: K562 target cells, Effector:Target 2:1, 4 hours at 37° C.; for inhibition at 20 µM: 4 h
Procedure: Inhibition of KHYG-1 NK Cell-Mediated Lysis of K562 Cells.
Test compounds were added to KHYG-1 cells at various concentrations up to 20 µM and incubated at RT for 20 minutes. 1×10^6 K562 target cells were labelled with 75 μCi ^51Cr in 200 μl RPMI for 90 mins at 37° C., cells were washed as described above and resuspended in 5 ml RPMI+0.1% BSA. 50 μl of ^51Cr labelled K562 leukemia target cells were added to each well of the KHYG-1 plate (Effector:Target 2:1) and incubated at 37° C. for 4 hours. ^51Cr release was assayed using a Skatron Harvesting Press and radioactivity estimated on a Wallac Wizard 1470 Automatic Gamma counter (Turku, Finland). The percentage of specific cytotoxicity was calculated by the formula: […]

recombinant perforin = recombinant perforin (UniProt P10820); type: cell-based
Procedure: Inhibition of perforin-mediated lysis of Jurkat cells.
The ability of the compounds to inhibit the lysis of nucleated (Jurkat T lymphoma) cells in the presence of 0.1% BSA, as measured by release of ^51Cr was measured. Jurkat target cells were labelled by incubation in medium with 100 μCi ^51Cr for one hour. The cells were then washed three times to remove unincorporated isotope and re-suspended at 1×10^5 cells per mL in RPMI buffer supplemented with 0.1% BSA. […] Each data point was performed in triplicate and an IC50 was calculated from the range of concentrations described to above.

[2] = read-out: Jurkat IC50; lysis of Jurkat T lymphoma cells by recombinant perforin, 0.1% BSA, 30 min pre-incubation, 4 hours at 37° C.
[3] = lysis of Jurkat T lymphoma cells by recombinant perforin, 0.1% BSA, 30 min pre-incubation, 4 hours at 37° C.; read-out: Jurkat IC50

recombinant perforin, sequence (P10820 whole entry): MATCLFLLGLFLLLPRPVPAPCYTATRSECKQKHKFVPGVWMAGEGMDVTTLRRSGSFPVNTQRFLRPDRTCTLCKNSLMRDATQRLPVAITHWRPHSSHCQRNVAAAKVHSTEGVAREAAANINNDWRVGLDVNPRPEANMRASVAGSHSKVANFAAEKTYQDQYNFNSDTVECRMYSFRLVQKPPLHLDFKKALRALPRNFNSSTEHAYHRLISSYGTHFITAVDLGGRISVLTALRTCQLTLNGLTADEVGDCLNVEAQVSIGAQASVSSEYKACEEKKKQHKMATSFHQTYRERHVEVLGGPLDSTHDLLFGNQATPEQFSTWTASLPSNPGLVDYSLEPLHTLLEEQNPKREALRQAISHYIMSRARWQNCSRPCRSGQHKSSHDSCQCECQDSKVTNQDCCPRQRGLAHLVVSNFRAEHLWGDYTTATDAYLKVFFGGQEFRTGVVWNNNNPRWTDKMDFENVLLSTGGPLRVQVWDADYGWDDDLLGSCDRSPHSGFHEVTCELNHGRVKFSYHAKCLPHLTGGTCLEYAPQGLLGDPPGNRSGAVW

SMILES	inhibition at 20 µM [1]	IC50 (recombinant perforin; [2])	IC50 (recombinant perforin; [3])	Inhibition of KHYG-1 at 20 μM (%) ([1]; 20 µM)
O=C1NCc2ccc(-c3ccc(-c4cncc(NS(=O)(=O)c5ccc(F)cc5F)c4)s3)cc21 [Compound 49, 2,4-Difluoro-N-(5-(5-(3-oxoisoindolin-5-yl)thiophen-2-yl)pyridin-3-yl)benzenesulfonamide]	49%	13.2 µM	–	–
CN1Cc2cc(-c3ccc(-c4cncc(NS(=O)(=O)c5ccccc5)c4)s3)ccc2C1=O [Compound 62, N-(5-(5-(2-Methyl-1-oxoisoindolin-5-yl)thiophen-2-yl)pyridin-3-yl)benzenesulphonamide]	9.71 ± 2%	–	8.46 µM	–
CN1Cc2cc(-c3ccc(-c4ccc(OC(F)(F)F)c(NS(=O)(=O)c5ccccn5)c4)s3)ccc2C1=O [Compound 63.Na, N-(5-(5-(2-Methyl-1-oxoisoindolin-5-yl)thiophen-2-yl)-2-(trifluoromethoxy)phenyl)pyridine-2-sulfonamide]	–	–	19.6 µM	77.07 ± 5%
CN1C(=O)Cc2cc(-c3ccc(-c4cncc(NS(=O)(=O)c5ccc(F)cc5F)c4)s3)ccc21 [Compound 66, 2,4-Difluoro-N-(5-(5-(1-methyl-2-oxoindolin-5-yl)thiophen-2-yl)pyridin-3-yl)benzenesulfonamides]	34.3 ± 9%	10.2 µM	–	–
O=C1Cc2cc(-c3ccc(-c4cncc(NS(=O)(=O)c5ccc(F)cc5F)c4)s3)ccc2N1 [Compound 67, 2,4-Difluoro-N-(5-(5-(2-oxoindolin-5-yl)thiophen-2-yl)pyridin-3-yl)benzenesulfonamides]	42.8 ± 10%	5.04 µM	–	–
Cc1cc(F)ccc1S(=O)(=O)Nc1cncc(-c2ccc(-c3ccc4c(c3)CN(C)C4=O)s2)c1 [Compound 70, 4-Fluoro-2-methyl-N-(5-(5-(2-methyl-1-oxoisoindolin-5-yl)thiophen-2-yl)pyridin-3-yl)benzenesulphonamide]	17.6 ± 13%	–	5.53 µM	–
Cn1ccc2cc(-c3ccc(-c4cncc(NS(=O)(=O)c5ccc(F)cc5F)c4)s3)ccc21 [Compound 72, 2,4-Difluoro-N-(5-(5-(1-methyl-1H-indol-5-yl)thiophen-2-yl)pyridin-3-yl)benzenesulfonamide]	19 ± 17%	8.63 µM	–	–
CN1Cc2cc(-c3ccc(-c4cncc(NS(=O)(=O)c5ccc(C(=O)O)cc5)c4)s3)ccc2C1=O [Compound 73, 4-(N-(5-(5-(2-Methyl-1-oxoisoindolin-5-yl)thiophen-2-yl)pyridin-3-yl)sulfamoyl)benzoic acid]	56.9 ± 29.6%	–	0.75 µM	–
CN1Cc2cc(-c3ccc(-c4cncc(NS(=O)(=O)c5ccc(I)cc5)c4)s3)ccc2C1=O [Compound 74, 4-Iodo-N-(5-(5-(2-methyl-1-oxoisoindolin-5-yl)thiophen-2-yl)pyridin-3-yl)benzenesulfonamides]	15.6 ± 5%	–	5 µM	–
CN1Cc2cc(-c3ccc(-c4cncc(NS(=O)(=O)c5ccc(Br)cc5Br)c4)s3)ccc2C1=O [Compound 75, 2,4-Dibromo-N-(5-(5-(2-methyl-1-oxoisoindolin-5-yl)thiophen-2-yl)pyridin-3-yl)benzenesulfonamides]	49.2 ± 15%	–	2.52 µM	–
CN1Cc2cc(-c3ccc(-c4cncc(NS(=O)(=O)c5ccc(-c6ccno6)s5)c4)s3)ccc2C1=O [Compound 76, 5-(Isoxazol-5-yl)-N-(5-(5-(2-methyl-1-oxoisoindolin-5-yl)thiophen-2-yl)pyridin-3-yl)thiophene-2-sulfonamide]	47.5 ± 10%	–	7.1 µM	–
CN1Cc2cc(-c3ccc(-c4cncc(NS(=O)(=O)c5ccc(-c6cnco6)cc5)c4)s3)ccc2C1=O [Compound 77, N-(5-(5-(2-Methyl-1-oxoisoindolin-5-yl)thiophen-2-yl)pyridin-3-yl)-4-(oxazol-5-yl)benzenesulfonamides]	38.3 ± 5%	–	3.05 µM	–
